# Measurements: PubChem BioAssay (NCI)
#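 Five compound concentrations were applied to cells in 96-well plates for 48 hours; endpoints were derived by simple linear interpolation of the resulting dose-response curve. At the TGI there is no net growth.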
# Tests used:
# Assay in all cases: NCI-60 cell line screen, 48 h
# [1] = system: SNB-75 CNS
# [2] = system: SF-539 CNS
# [3] = system: IGROV1 ovarian
# [4] = system: COLO 205 colon
# [5] = system: SN12C renal
# [6] = system: M14 melanoma
# [7] = system: XF 498 CNS
# [8] = system: ACHN renal
# [9] = system: HCC-2998 colon
# [10] = system: SK-MEL-2 melanoma
# [11] = system: CAKI-1 renal
# [12] = system: RXF-631 renal
# [13] = system: RPMI-8226 leukemia
# [14] = system: 786-0 renal
# [15] = system: LOX IMVI melanoma
# [16] = system: SNB-78 CNS
# [17] = system: SF-268 CNS
# [18] = system: SK-OV-3 ovarian
# [19] = system: NCI-H226 lung
# [20] = system: SR leukemia
# [21] = system: HOP-92 NSCLC
# [22] = system: HL-60(TB) leukemia
# [23] = system: DLD-1 colon
# [24] = system: A498 renal
# [25] = system: LXFL 529 NSCLC
# [26] = system: M19-MEL melanoma
# [27] = system: UACC-62 melanoma
# [28] = system: DMS 273 small cell lung
# [29] = system: MALME-3M melanoma
# [30] = system: SK-MEL-28 melanoma
# [31] = system: HCT-116 colon
# [32] = system: UO-31 renal
# [33] = system: HOP-62 NSCLC
# [34] = system: OVCAR-5 ovarian
# [35] = system: SF-295 CNS
# [36] = system: SK-MEL-5 melanoma
# [37] = system: NCI-H460 lung
# [38] = system: HOP-18 NSCLC
# [39] = system: MOLT-4 leukemia
# [40] = system: KM12 colon
# [41] = system: EKVX NSCLC
# [42] = system: HT29 colon
# [43] = system: OVCAR-8 ovarian
# [44] = system: NCI-H522 lung
# [45] = system: SNB-19 CNS
# [46] = system: KM20L2 colon
# [47] = system: A549 NSCLC
# [48] = system: HCT-15 colon
# [49] = system: CCRF-CEM leukemia
# [50] = system: U251 CNS
# [51] = system: DMS 114 small cell lung
# [52] = system: K-562 leukemia
# [53] = system: RXF 393 renal
# [54] = system: OVCAR-4 ovarian
# [55] = system: NCI-H23 lung
# [56] = system: UACC-257 melanoma
# [57] = system: SW-620 colon
# [58] = system: TK-10 renal
# [59] = system: OVCAR-3 ovarian
compound,measurement,setting,value
C[C@@H]1CC2(N=CCS2)[C@]2(O)O[C@@H]3C[C@@]4(C)[C@H](C[C@H]3O[C@@H]2O1)C[C@H]1O[C@]12[C@@H]4[C@H](O)C(=O)[C@]1(C)C(C3=CC(=O)OC3)CC[C@]21O (some centres undefined),TGI,[1],0.0984 µM
same,TGI,[2],0.0122 µM
same,TGI,[3],0.159 µM
same,TGI,[4],0.0828 µM
same,TGI,[5],0.0202 µM
same,TGI,[6],0.0497 µM
same,TGI,[7],0.0336 µM
same,TGI,[8],0.0149 µM
same,TGI,[9],0.0727 µM
same,TGI,[10],0.0749 µM
same,TGI,[11],0.0265 µM
same,TGI,[12],0.102 µM
same,TGI,[13],0.0578 µM
same,TGI,[14],0.0179 µM
same,TGI,[15],0.0239 µM
same,TGI,[16],0.0495 µM
same,TGI,[17],0.0146 µM
same,TGI,[18],0.0778 µM
same,TGI,[19],0.0746 µM
same,TGI,[20],0.015 µM
same,TGI,[21],0.08 µM
same,TGI,[22],0.0353 µM
same,TGI,[23],0.0216 µM
same,TGI,[24],0.0386 µM
same,TGI,[25],0.0166 µM
same,TGI,[26],0.0784 µM
same,TGI,[27],0.0511 µM
same,TGI,[28],0.0214 µM
same,TGI,[29],0.0285 µM
same,TGI,[30],0.089 µM
same,TGI,[31],0.0301 µM
same,TGI,[32],0.0755 µM
same,TGI,[33],0.0211 µM
Clc1ccc(CCN2CCOCC2)c(Cl)c1,TGI,[1],83.3 µM
same,TGI,[2],> 100 µM
same,TGI,[3],> 100 µM
same,TGI,[4],> 100 µM
same,TGI,[34],> 100 µM
same,TGI,[5],> 100 µM
same,TGI,[6],> 100 µM
same,TGI,[35],> 100 µM
same,TGI,[7],> 100 µM
same,TGI,[8],> 100 µM
same,TGI,[36],> 100 µM
same,TGI,[37],> 100 µM
same,TGI,[9],> 100 µM
same,TGI,[10],> 100 µM
same,TGI,[11],> 100 µM
same,TGI,[12],> 100 µM
same,TGI,[38],> 100 µM
same,TGI,[39],> 100 µM
same,TGI,[13],> 100 µM
same,TGI,[40],> 100 µM
same,TGI,[14],> 100 µM
same,TGI,[41],> 100 µM
same,TGI,[42],> 100 µM
same,TGI,[16],> 100 µM
same,TGI,[43],> 100 µM
same,TGI,[17],> 100 µM
same,TGI,[44],> 100 µM
same,TGI,[18],> 100 µM
same,TGI,[20],> 100 µM
same,TGI,[45],> 100 µM
same,TGI,[46],> 100 µM
same,TGI,[21],> 100 µM
same,TGI,[47],> 100 µM
same,TGI,[48],> 100 µM
same,TGI,[49],> 100 µM
same,TGI,[50],> 100 µM
same,TGI,[22],> 100 µM
same,TGI,[23],> 100 µM
same,TGI,[51],> 100 µM
same,TGI,[52],> 100 µM
same,TGI,[24],> 100 µM
same,TGI,[53],> 100 µM
same,TGI,[54],> 100 µM
same,TGI,[55],> 100 µM
same,TGI,[26],> 100 µM
same,TGI,[27],> 100 µM
same,TGI,[29],> 100 µM
same,TGI,[30],> 100 µM
same,TGI,[56],> 100 µM
same,TGI,[31],> 100 µM
same,TGI,[32],> 100 µM
same,TGI,[33],> 100 µM
Nc1nc(Cl)cc(NCCCCCCCCCCNc2cc(Cl)nc(N)n2)n1,TGI,[1],68.8 µM
same,TGI,[2],> 100 µM
same,TGI,[3],> 100 µM
same,TGI,[4],> 100 µM
same,TGI,[57],> 100 µM
same,TGI,[34],> 100 µM
same,TGI,[5],> 100 µM
same,TGI,[6],> 100 µM
same,TGI,[35],46.4 µM
same,TGI,[7],8.86 µM
same,TGI,[8],0.0447 µM
same,TGI,[36],4.47 µM
same,TGI,[37],> 100 µM
same,TGI,[9],> 100 µM
same,TGI,[10],> 100 µM
same,TGI,[11],> 100 µM
same,TGI,[12],40.3 µM
same,TGI,[38],> 100 µM
same,TGI,[13],91.4 µM
same,TGI,[40],> 100 µM
same,TGI,[14],91.5 µM
same,TGI,[41],> 100 µM
same,TGI,[15],24.2 µM
same,TGI,[42],> 100 µM
same,TGI,[16],> 100 µM
same,TGI,[43],63 µM
same,TGI,[17],> 100 µM
same,TGI,[44],11.5 µM
same,TGI,[18],> 100 µM
same,TGI,[19],20.3 µM
same,TGI,[58],> 100 µM
same,TGI,[20],> 100 µM
same,TGI,[45],> 100 µM
same,TGI,[46],> 100 µM
same,TGI,[21],> 100 µM
same,TGI,[47],> 100 µM
same,TGI,[48],> 100 µM
same,TGI,[49],> 100 µM
same,TGI,[50],> 100 µM
same,TGI,[22],34.6 µM
same,TGI,[23],> 100 µM
same,TGI,[59],> 100 µM
same,TGI,[52],> 100 µM
same,TGI,[53],> 100 µM
same,TGI,[25],> 100 µM
same,TGI,[54],> 100 µM
same,TGI,[55],> 100 µM
same,TGI,[26],> 100 µM
same,TGI,[27],> 100 µM
same,TGI,[28],> 100 µM
same,TGI,[56],> 100 µM
same,TGI,[31],> 100 µM
same,TGI,[32],> 100 µM
same,TGI,[33],> 100 µM
